{"source": "patent EP3431088A1", "about": "“MNTBAP FOR USE IN INDUCING A TRANSIENT IMMUNE TOLERANCE” (priority 2017, dated 2019)", "key": {"clathrin and CD4": {"test_system": "clathrin and CD4", "assay": "Immunofluorescence confocal microscopy, anti-CD4 and anti-clathrin", "format": "cell-based", "details": "murine splenic enriched CD4+ T cells, 2 hours, 400 µM, vs non-treated", "description": "After culture in complete medium with or without MnTBAP at 400 µM, murine splenic CD4^+ T cells are collected and subjected to immunostaining as previously described (T. M. Neildez-Nguyen et al., Immunology 144, 431. 2015). Briefly, after adhesion on poly-L-lysine-coated slides (Thermo Fisher Scientific), cells are fixed in 4% paraformaldehyde for 5 minutes at 4°C and for 10 minutes at room temperature, and permeabilized with methanol for 6 minutes at -20°C. Cells are stained overnight with rat anti-mouse CD4-APC (BD Biosciences) and rabbit anti-mouse clathrin (Abcam, Paris, France) antibodies, and then with the goat anti-rabbit Alexa Fluor 488 secondary antibody (Invitrogen, Carlsbad, USA) for 30 minutes at room temperature. Negative controls are performed with the corresponding isotype controls of primary antibodies used (BD Biosciences and Abcam). The slides are mounted with Fluoromount/Dapi (SouthernBiotech, Montrouge, France). Images are acquired with confocal-laser-scanning microscope (Leica Microsystems, Nanterre, France)."}, "[1]": {"test_system": "lentiviral vectors pseudotyped with HIV-1 envelope protein (HXB2-env)", "assay": "Transduction of human CD3+ T cells by HXB2-env pseudotyped lentiviral vectors (GFP)", "format": "cell-based", "details": "400 µM, 72 hours post transduction, vs control", "description": "CD3^+ T cells, from peripheral blood of healthy individual donors, are purified by positive selection via MACS beads using a magnetic cell sorting system (Miltenyi Biotec). CD3^+ T cells are activated for 3 days at 37°C, 5% CO2 in plates coated with anti-CD3 (10 µg/ml) and anti-CD28 (10 µg/ml) antibodies (both from Miltenyi Biotec) and filled with RPMI 1640 medium supplemented with 10% heat-inactivated fetal calf serum, 100 U/ml penicillin/streptomycin, 2 mM glutamax, 100 IU/ml IL-2 (Miltenyi Biotec). Cells are then transferred on retronectin (20 µg/cm2) coated-plates, in the presence or absence of MnTBAP (400 µM), at a density of 2.5 x 10^5 cells/ml for transduction during 6 h with 6 x 10^7 physical particles (pp)/ml of HXB2-env pseudotyped lentiviral vectors expressing GFP reporter gene under the control of hPGK (human phosphoglycerate kinase 1). After transduction, cells are washed and further incubated for 72 h in fresh culture medium (RPMI 1640 medium supplemented as described above). Cells are then harvested for transduction efficiency analysis by FACS, determined as the percentage of viable (7AAD-) lymphoid cells expressing GFP^+. The data are normalized to be a percentage of the control value (none) from each experiment."}, "[2]": {"test_system": "humoral response against capsid", "assay": "Anti-rAAV1 IgG titers by ELISA after IV rAAV and readministration", "format": "in vivo, C57BL/6 mice", "details": "for specific anti-rAAV IgG: 80 mg/kg IP daily 5 days, vs control group", "description": "(§1) MnTBAP (Calbiochem, San Diego, USA or Enzo Life Sciences, Farmingdale, USA) is dissolved in 75 mM NaOH to constitute a 20 mM stock solution. MnTBAP is dissolved in the complete medium, used for in vitro treatment, containing RPMI-1640 supplemented with 10% heat-inactivated fetal calf serum, 100 U/ml penicillin/streptomycin, 2 mM glutamax and 50 µM β-mercaptoethanol β-ME). Hypertonic medium, used to block clathrin dependent endocytosis, is complete medium supplemented with 0.45 M sucrose. For in vivo treatment, the stock solution is diluted with PBS and administered at 80 mg/kg intraperitoneally daily during five days. Control animals are injected with equivalent volume of PBS.\nIntravenous (IV) injection: Two hours post first IP injection of MnTBAP, mice are anesthetized by IP injection of xylazine (10 mg/kg) and ketamine (100 mg/kg) and 200 µl of a rAAV2/1 CMV SGCA HY viral preparation containing 2.5.10^9 vg is injected into retro orbital sinus or into tail vein. Controls are injected with PBS. Serum samples are harvested at D21 and D28 post vector injection to analyze capsid-specific humoral response.\nReadministration protocol: After the initial IV injection of rAAV2/1 CMV SGCA HY vector at D0 (two hours post first IP injection of MnTBAP) the second rAAV1 injection (2.10^9 vg of rAAV2/1 CMV mSeAP) is performed 28 days later in the left TA muscle. Mice are followed up to 93 days after readministration to analyze capsid-specific humoral response and to measure circulating mSeAP from serum samples. Mice are killed 93 days after second injection of vector. Left and right TA muscles are harvested for histological and enzymatic assay.\nrAAVl-specific serum antibody titers are evaluated by ELISA. […] Reaction is stopped with an H2SO4 solution and the optical density at 450 nm is determined using a […] (Discovery HT-R, BioServ, Thiais, France) with KC4 software. The area under the curve (AUC) values obtained from the optical densities at four dilution points are calculated for statistical analysis using GraphPad Prism software (Logi Labo, Paris, France)."}, "CD4": {"test_system": "CD4", "assay": "CD4 cell surface expression by flow cytometry", "format": "cell-based, murine", "description": "as §1\nAfter mechanic disruption of the spleen, erythrocytes are eliminated by hypotonic shock with ammonium chloride potassium (ACK) lysing buffer. Then CD4^+ T cells are isolated from spleen cell suspension by negative selection using a CD4^+ T cell isolation kit (Miltenyi Biotec, Paris, France) followed by auto-MACS (Miltenyi Biotec) magnetic sorting, according to the manufacturer's instructions. Purity of isolated CD4^+ T cells is usually > 95%. Cell suspensions are first incubated with anti-FcγRIII/II (Fc Block, 2.4G2, BD Biosciences, Le Pont de Claix, France) monoclonal antibodies (mAb) for 10 minutes at 4°C and then stained for 30 minutes at 4°C in PBS, 0.1% bovine serum albumin (BSA) with Fc Block present, using saturating amounts of rat anti-mouse CD4-Pacific Blue (RM4-5, BD Biosciences) mAb. Gates for CD4^+ populations are set according to isotype controls. Cell viability is determined by staining with 7-aminoactinomycin D (7-AAD; Sigma-Aldrich, St-Quentin-Fallavier, France) or Fixable Viability Dye eFluor 780 (eBiosciences, Paris, France). When indicated, samples are fixed with 1% paraformaldehyde. Samples are acquired on an LSR II flow cytometer (BD Biosciences) and data were analyzed with DIVA software (BD Biosciences)."}}}
{"smiles": "O=C(O)c1ccc(-c2c3nc(c(-c4ccc(C(=O)O)cc4)c4ccc([n-]4)c(-c4ccc(C(=O)O)cc4)c4nc(c(-c5ccc(C(=O)O)cc5)c5ccc2[n-]5)C=C4)C=C3)cc1.[Mn+3]", "note": "[MnTBAP, manganese [III] tetrakis (4-benzoic acid) porphyrin]", "values": [{"measurement": "colocalization of clathrin and CD4", "setting": "clathrin and CD4", "result": "colocalization of clathrin and CD4 is observed"}, {"measurement": "transduction efficiency of human T cells (GFP^+ cells)", "setting": "[1]", "result": "significantly decreased"}, {"measurement": "specific anti-rAAV IgG", "setting": "[2]; Day 21 post IV vector injection", "result": "no or significantly less specific anti-rAAV IgG"}, {"measurement": "specific anti-rAAV IgG", "setting": "[2]; Day 28 post IV vector injection", "result": "no or significantly less specific anti-rAAV IgG"}, {"measurement": "specific anti-rAAV IgG titer", "setting": "[2]; serum 10 days after vector readministration in TA (28 days post first injection), vs PBS", "result": "decrease of specific anti-rAAV IgG titer"}, {"measurement": "CD4 expression (CD4 GMFI)", "setting": "CD4; 2 hours after washing out MnTBAP (\"2 h removed\")", "result": "the decrease of CD4 expression is less important"}, {"measurement": "CD4 expression (CD4 GMFI)", "setting": "CD4; fixed cells, 400 µM, 2 hours (\"treated\") vs \"none\"", "result": "decrease of CD4 expression"}, {"measurement": "CD4 expression", "setting": "CD4; hypertonic conditions (RPMI + 0.45 M sucrose), 400 µM, 2 hours, treated vs non-treated", "result": "no significant difference of CD4 expression"}, {"measurement": "percentage of CD4 expression", "setting": "CD4; normal tonicity (RPMI), 400 µM, 2 hours, vs non-treated", "result": "decreased"}, {"measurement": "CD4 expression (CD4 GMFI)", "setting": "CD4; overnight after removing MnTBAP (\"O/N removed\")", "result": "further less accentuated"}, {"measurement": "CD4 at the cell surface of CD4 expressing cells", "setting": "CD4; splenic enriched CD4+ T cells, 400 µM, 2 hours, vs control", "result": "disappearance of CD4 at the cell surface"}, {"measurement": "CD4 expression", "setting": "CD4; viable murine splenic enriched CD4+ T cells, 2 hours, 400 µM", "result": "maximal decrease of CD4 expression"}, {"measurement": "CD4 expression", "setting": "CD4; viable murine splenic enriched CD4+ T cells, 2 hours, increasing doses 0, 100, 200, 400 µM", "result": "progressive decrease of CD4 expression"}]}
